# Laboratory results reported in US6706663B2, “Herbicidal 3-heterocyclic substituted benzisothiazole and benzisoxazole compounds” (Wyeth, priority 2000, dated 2004).
# Legend:
# [1] = test system: ZEAMX (Corn, Field); experiment: Preemergence herbicidal evaluation; type: in vivo, Zea mays, L.; details: rated 4-5 weeks after treatment
# Description: (§1) Results of herbicide evaluation are expressed on a rating scale (0-9). The scale is based upon a visual observation of plant stand, vigor, malformation, size, chlorosis and overall plant appearance as compared with a control.
# (§2) The preemergence herbicidal activity of the test compounds of the present invention is exemplified by the following tests in which the seeds of a variety of monocotyledonous and dicotyledonous plants are separately mixed with potting soil and planted on top of approximately one inch of soil in separate pint cups. […] The treated cups are then placed on greenhouse benches, watered and cared for in accordance with conventional greenhouse procedures. From four to five weeks after treatment, the tests are terminated and each cup is examined and rated according to the rating system provided in Example 87. The plant species used and the compounds evaluated are the same as those shown in Example 87.
# [2] = test system: MOOVA (Monochoria vaginalis); experiment: Flooded paddy, preemergence weed control; type: in vivo, Presl.; details: rated 3-4 weeks after treatment, 0-9 rating scale
# Protocol: as §1
# (§3) Preemergence herbicidal activity under flooded paddy conditions is determined as follows: plant seeds or propagating organs are planted in the top 0.5 cm of silt loam soil in 32 oz. plastic containers with a diameter of 10.5 cm and no drainage holes. Water is added to these containers and maintained at 1.5 to 3 cm above the soil surface for the duration of the experiment. […] The treated containers are placed on greenhouse benches and cared for in accordance with conventional greenhouse procedures.
# [3] = test system: ZEAMX (Corn, Field); experiment: Postemergence herbicidal evaluation; type: in vivo, Zea mays, L.; details: postemergence
# Protocol: (§4) In the tests, seedling plants are grown in jiffy flats for about two weeks. […] After spraying, the plants are placed on greenhouse benches and are cared for in accordance with conventional greenhouse procedures. From four to five weeks after treatment, the seedling plants are examined and rated according to the rating system set forth below. Where more than one test is involved for a given compound, the data are averaged.
# as §1
# [4] = test system: TRZAWR (Wheat, Winter, cv Riband); experiment: Postemergence herbicidal evaluation; type: in vivo, Triticum aestivum; details: postemergence
# Protocol: as §4, §1
# [5] = test system: SETVI (Setaria viridis); experiment: Preemergence herbicidal evaluation; type: in vivo, (L.) Beau; details: rated 4-5 weeks after treatment
# Description: as §1, §2
# [6] = test system: ECHCG (Echinochloa crus-galli); experiment: Preemergence herbicidal evaluation; type: in vivo, (L.) Beau; details: rated 4-5 weeks after treatment
# Description: as §1, §2
# [7] = test system: CYPIR (Cyperus iria); experiment: Flooded paddy, preemergence weed control; type: in vivo; details: rated 3-4 weeks after treatment, 0-9 rating scale
# Protocol: as §1, §3
# [8] = test system: ABUTH (Abutilon theophrasti); experiment: Postemergence herbicidal evaluation; type: in vivo, Medic.; details: postemergence
# Protocol: as §4, §1
# [9] = test system: CHEAL (Chenopodium album); experiment: Postemergence herbicidal evaluation; type: in vivo, L.; details: postemergence
# Protocol: as §4, §1
# [10] = test system: CASOB (Cassia obtusifolia); experiment: Postemergence herbicidal evaluation; type: in vivo, L.; details: postemergence
# Protocol: as §4, §1
# [11] = test system: AMBEL (Ambrosia artemisifolia); experiment: Postemergence herbicidal evaluation; type: in vivo, L.; details: postemergence
# Protocol: as §4, §1
# [12] = test system: GLXMAW (Soybean, Williams); experiment: Postemergence herbicidal evaluation; type: in vivo, Glycine max, (L.) Merr. cv Williams; details: postemergence
# Protocol: as §4, §1
# [13] = test system: GALAP (Galium aparine); experiment: Postemergence herbicidal evaluation; type: in vivo; details: postemergence
# Protocol: as §4, §1
# [14] = test system: ABUTH (Abutilon theophrasti); experiment: Preemergence herbicidal evaluation; type: in vivo, Medic.; details: rated 4-5 weeks after treatment
# Description: as §1, §2
# [15] = test system: IPOHE (Ipomoea hederacea); experiment: Postemergence herbicidal evaluation; type: in vivo, (L.) Jacq.; details: postemergence
# Protocol: as §4, §1
# [16] = test system: ORYSAT (Rice, Tebonnet); experiment: Preemergence herbicidal evaluation; type: in vivo, Oryza sativa, (L.) Tebonnet; details: rated 4-5 weeks after treatment
# Description: as §1, §2
# [17] = test system: ECHORC (Echinochloa oryzoides); experiment: Flooded paddy, preemergence weed control; type: in vivo, Echinochloa oryzoides (Ard.) Fritsch.; details: rated 3-4 weeks after treatment, 0-9 rating scale
# Protocol: as §1, §3
# [18] = test system: SAGPY (Sagittaria pygmaea); experiment: Flooded paddy, preemergence weed control; type: in vivo, L.; details: rated 3-4 weeks after treatment, 0-9 rating scale
# Protocol: as §1, §3
# [19] = test system: TRZAWR (Wheat, Winter, cv Riband); experiment: Preemergence herbicidal evaluation; type: in vivo, Triticum aestivum; details: rated 4-5 weeks after treatment
# Description: as §1, §2
# [20] = test system: SETVI (Setaria viridis); experiment: Postemergence herbicidal evaluation; type: in vivo, (L.) Beau; details: postemergence
# Protocol: In the tests, seedling plants are grown in jiffy flats for about two weeks. The test compounds are dispersed in 50/50 acetone/water mixtures containing 0.5% TWEEN® 20, a polyoxyethylene sorbitan monolaurate surfactant of Atlas Chemical Industries, in sufficient quantities to provide the equivalent of about 0.0040 kg to 1.000 kg per hectare of active compound when applied to the plants through a spray nozzle operating at 40 psi for a predetermined time. After spraying, the plants are placed on greenhouse benches and are cared for in accordance with conventional greenhouse procedures. From four to five weeks after treatment, the seedling plants are examined and rated according to the rating system set forth below. Where more than one test is involved for a given compound, the data are averaged.
# as §1
# [21] = test system: ORYSAT (Rice, Tebonnet); experiment: Postemergence herbicidal evaluation; type: in vivo, Oryza sativa, (L.) Tebonnet; details: postemergence
# Protocol: as §4, §1
# [22] = test system: CHEAL (Chenopodium album); experiment: Preemergence herbicidal evaluation; type: in vivo, L.; details: rated 4-5 weeks after treatment
# Description: as §1, §2
# [23] = test system: CASOB (Cassia obtusifolia); experiment: Preemergence herbicidal evaluation; type: in vivo, L.; details: rated 4-5 weeks after treatment
# Description: as §1, §2
# [24] = test system: AMBEL (Ambrosia artemisifolia); experiment: Preemergence herbicidal evaluation; type: in vivo, L.; details: rated 4-5 weeks after treatment
# Description: as §1, §2
# [25] = test system: IPOHE (Ipomoea hederacea); experiment: Preemergence herbicidal evaluation; type: in vivo, (L.) Jacq.; details: rated 4-5 weeks after treatment
# Description: as §1, §2
# [26] = test system: ECHCG (Echinochloa crus-galli); experiment: Postemergence herbicidal evaluation; type: in vivo, (L.) Beau; details: postemergence
# Protocol: as §4, §1
# [27] = test system: GLXMAW (Soybean, Williams); experiment: Preemergence herbicidal evaluation; type: in vivo, Glycine max, (L.) Merr. cv Williams; details: rated 4-5 weeks after treatment
# Description: as §1, §2
# [28] = test system: GALAP (Galium aparine); experiment: Preemergence herbicidal evaluation; type: in vivo; details: rated 4-5 weeks after treatment
# Description: as §1, §2
substance,measurement,setting,value
"3-[3-[5-(bromomethyl)-5-hydroxy-m-diaxan-2-yl]-1,2-benzisothiazol-5-yl]-1-methyl-6-(trifluoromethyl)uracil [Compound 69]",Preemergence herbicidal rating ZEAMX,[1]; Rate 0.0620 kg/ha,1.0
same,Preemergence herbicidal rating ZEAMX,[1]; Rate 0.1250 kg/ha,3.0
same,Preemergence herbicidal rating ZEAMX,[1]; Rate 0.2500 kg/ha,7.0
same,"herbicidal rating, MOOVA",[2]; rate 0.0080 kg/ha,0.0
same,"herbicidal rating, MOOVA",[2]; rate 0.0320 kg/ha,0.0
same,"herbicidal rating, MOOVA",[2]; rate 0.1250 kg/ha,3.0
same,ZEAMX herbicidal rating,[3]; rate 0.0320 kg/ha,5.5
same,ZEAMX herbicidal rating,[3]; rate 0.0620 kg/ha,5.5
same,TRZAWR herbicidal rating,[4]; rate 0.0320 kg/ha,4.0
same,TRZAWR herbicidal rating,[4]; rate 0.0620 kg/ha,4.5
same,Preemergence herbicidal rating SETVI,[5]; Rate 0.0620 kg/ha,7.0
same,Preemergence herbicidal rating SETVI,[5]; Rate 0.1250 kg/ha,9.0
same,Preemergence herbicidal rating SETVI,[5]; Rate 0.2500 kg/ha,9.0
same,Preemergence herbicidal rating ECHCG,[6]; Rate 0.0620 kg/ha,4.0
same,Preemergence herbicidal rating ECHCG,[6]; Rate 0.1250 kg/ha,8.0
same,Preemergence herbicidal rating ECHCG,[6]; Rate 0.2500 kg/ha,8.0
same,"herbicidal rating, CYPIR",[7]; rate 0.0080 kg/ha,0.0
same,"herbicidal rating, CYPIR",[7]; rate 0.0320 kg/ha,0.0
same,"herbicidal rating, CYPIR",[7]; rate 0.1250 kg/ha,3.0
same,ABUTH herbicidal rating,[8]; rate 0.0320 kg/ha,9.0
same,ABUTH herbicidal rating,[8]; rate 0.0620 kg/ha,9.0
same,CHEAL herbicidal rating,[9]; rate 0.0320 kg/ha,9.0
same,CHEAL herbicidal rating,[9]; rate 0.0620 kg/ha,7.0
same,CASOB herbicidal rating,[10]; rate 0.0320 kg/ha,0.0
same,CASOB herbicidal rating,[10]; rate 0.0620 kg/ha,2.0
same,AMBEL herbicidal rating,[11]; rate 0.0320 kg/ha,9.0
same,AMBEL herbicidal rating,[11]; rate 0.0620 kg/ha,9.0
same,GLXMAW herbicidal rating,[12]; rate 0.0320 kg/ha,7.5
same,GLXMAW herbicidal rating,[12]; rate 0.0620 kg/ha,7.0
same,GALAP herbicidal rating,[13]; rate 0.0320 kg/ha,4.0
same,GALAP herbicidal rating,[13]; rate 0.0620 kg/ha,6.0
same,Preemergence herbicidal rating ABUTH,[14]; Rate 0.0620 kg/ha,9.0
same,Preemergence herbicidal rating ABUTH,[14]; Rate 0.1250 kg/ha,9.0
same,Preemergence herbicidal rating ABUTH,[14]; Rate 0.2500 kg/ha,9.0
same,IPOHE herbicidal rating,[15]; rate 0.0320 kg/ha,9.0
same,IPOHE herbicidal rating,[15]; rate 0.0620 kg/ha,9.0
same,Preemergence herbicidal rating ORYSAT,[16]; Rate 0.0620 kg/ha,1.0
same,Preemergence herbicidal rating ORYSAT,[16]; Rate 0.1250 kg/ha,2.0
same,Preemergence herbicidal rating ORYSAT,[16]; Rate 0.2500 kg/ha,5.0
same,"herbicidal rating, ECHORC",[17]; rate 0.0080 kg/ha,0.0
same,"herbicidal rating, ECHORC",[17]; rate 0.0320 kg/ha,0.0
same,"herbicidal rating, ECHORC",[17]; rate 0.1250 kg/ha,3.0
same,"herbicidal rating, SAGPY",[18]; rate 0.0080 kg/ha,0.0
same,"herbicidal rating, SAGPY",[18]; rate 0.0320 kg/ha,0.0
same,"herbicidal rating, SAGPY",[18]; rate 0.1250 kg/ha,3.0
same,Preemergence herbicidal rating TRZAWR,[19]; Rate 0.0620 kg/ha,1.0
same,Preemergence herbicidal rating TRZAWR,[19]; Rate 0.1250 kg/ha,2.0
same,Preemergence herbicidal rating TRZAWR,[19]; Rate 0.2500 kg/ha,5.0
same,SETVI herbicidal rating,[20]; rate 0.0320 kg/ha,2.0
same,SETVI herbicidal rating,[20]; rate 0.0620 kg/ha,4.0
same,ORYSAT herbicidal rating,[21]; rate 0.0320 kg/ha,4.0
same,ORYSAT herbicidal rating,[21]; rate 0.0620 kg/ha,4.0
same,Preemergence herbicidal rating CHEAL,[22]; Rate 0.0620 kg/ha,9.0
same,Preemergence herbicidal rating CHEAL,[22]; Rate 0.1250 kg/ha,9.0
same,Preemergence herbicidal rating CHEAL,[22]; Rate 0.2500 kg/ha,9.0
same,Preemergence herbicidal rating CASOB,[23]; Rate 0.0620 kg/ha,0.0
same,Preemergence herbicidal rating CASOB,[23]; Rate 0.1250 kg/ha,1.0
same,Preemergence herbicidal rating CASOB,[23]; Rate 0.2500 kg/ha,6.0
same,Preemergence herbicidal rating AMBEL,[24]; Rate 0.0620 kg/ha,7.0
same,Preemergence herbicidal rating AMBEL,[24]; Rate 0.1250 kg/ha,9.0
same,Preemergence herbicidal rating AMBEL,[24]; Rate 0.2500 kg/ha,8.0
same,Preemergence herbicidal rating IPOHE,[25]; Rate 0.0620 kg/ha,1.0
same,Preemergence herbicidal rating IPOHE,[25]; Rate 0.1250 kg/ha,9.0
same,Preemergence herbicidal rating IPOHE,[25]; Rate 0.2500 kg/ha,9.0
same,ECHCG herbicidal rating,[26]; rate 0.0320 kg/ha,2.0
same,ECHCG herbicidal rating,[26]; rate 0.0620 kg/ha,3.0
same,Preemergence herbicidal rating GLXMAW,[27]; Rate 0.0620 kg/ha,2.0
same,Preemergence herbicidal rating GLXMAW,[27]; Rate 0.1250 kg/ha,9.0
same,Preemergence herbicidal rating GLXMAW,[27]; Rate 0.2500 kg/ha,9.0
same,Preemergence herbicidal rating GALAP,[28]; Rate 0.0620 kg/ha,7.0
same,Preemergence herbicidal rating GALAP,[28]; Rate 0.1250 kg/ha,9.0
same,Preemergence herbicidal rating GALAP,[28]; Rate 0.2500 kg/ha,9.0
